In brackets after ≈: the same amount, converted by molar mass.

This assay concerns Pseudomonas fluorescens. Description: Minimum inhibitory concentration, dilution methods (Example 14). In kind it is cell-based. An excerpt:
Bacteriocidal activity and fungicidal activity of the active compounds of the present invention were examined by potato-dextrose agar dilution method, [2] waxman's liquid medium dilution method or [3] glucose bouillon medium dilution method. The results are shown in Table 4 below as the minimum inhibitory concentration (the minimum concentration of active compound found to produce 100% control of the test bacteria and fungi).

Under “(1) potato-dextrose agar dilution method”, `O=C(NC=C(Cl)Cl)c1ccccc1O` [Compound No. 1, N-(β,β-dichlorovinyl) salicylamide] had a minimum inhibitory concentration of 40 mc g/ml. Further, inhibition of growth (Pseudomonas fluorescens, (2) waxman's liquid medium dilution method) (MIC) required 40 µg/mL (≈ 172 µM).

The record behind these values is patent US4055640A, “Compositions and methods for controlling the growth of bacteria, fungi and algae using certain derivatives of N-(2,2-dichlorovinyl)salicylamides” (Nippon Kayaku Co., Ltd., priority 1975, dated 1977).
